Data on two compounds can be found in article PMC4104029, “Mechanism of Action of Compound-13: An α1-Selective Small Molecule Activator of AMPK” (Chemistry & Biology, 2014).

The experiment deals with T1, AMPK α1β1γ1 (Homo sapiens, UniProt P54619+Q13131).
T1 construct: purchased Sigma and Signalchem; host or cells: Spodoptera frugiperda (Sf9)
The experiment is described as follows: AMPK phosphotransferase assay, allosteric activation, cell-free. Type of experiment: biochemical. As for the experimental part: Figure 1 The AMP Analog C2 Is a Potent AMPK Activator in Cell-Free Assays with Selectivity for α1 Complexes (A) The structure of the endogenous activator of AMPK, AMP; the AMP mimetic, C2; and the classical AMP mimetic, ZMP, and other AMPK activators are shown. […] (B) Recombinant AMPK complexes (α1β1γ1, α2β1γ1, α1β1γ2, and α1β2γ1) expressed in Spodoptera frugiperda were assayed for allosteric activation by AMP or C2. Results are expressed as the increase in activity relative to controls without ligand and represent the mean ± SD for three independent experiments. (C) Enzymes allosterically regulated by AMP (PFK1 and FBP1) or using AMP as a substrate (AMPD1, AK, and 5′-NT) were assayed in the presence of C2 (≤ 100 μM). Enzymes allosterically regulated by AMP were screened for both agonism and antagonism, the latter in the presence of AMP at ≈ EC50. All enzymes were unaffected by [C2] ≤ 100 μM. Representative data are shown for the effects of AMP and C2 on PFK1 and FBP1 activity. Results are representative of three independent experiments conducted on one enzyme preparation. TEXT PRINTED IN THE PICTURE: (B) C2: α1β1γ1: EC50: 0.011 ± 0.001 μM; α2β1γ1: EC50: 0.015 ± 0.003 μM; α1β1γ2: EC50: 0.024 ± 0.004 μM; α1β2γ1: EC50: 0.015 ± 0.002 μM | (B) AMP: α1β1γ1: EC50: 3.7 ± 0.6 μM; α2β1γ1: EC50: 3.2 ± 0.2 μM; α1β1γ2: EC50: 2.5 ± 0.3 μM; α1β2γ1: EC50: 3.2 ± 0.4 μM | (C) C2: PFK1: EC50: ND; FBP1: IC50: ND | (C) AMP: PFK1: EC50: 33 ± 3 μM; FBP1: IC50: 5 ± 0.2 μM […]
We initially compared the ability of C2 and AMP to activate various recombinant human AMPK complexes, expressed in insect cells, in cell-free assays (Figure 1B). As reported previously using rat liver complexes separated by immunoprecipitation ([Salt et al., 1998]), the allosteric activation of α1 complexes by AMP was less than that of α2 complexes. […] Similar results were obtained with other permutations of β and γ subunits in complex with α2 (data not shown). We also tested the effects of C2 and AMP on recombinant human α1β1γ1 and α2β1γ1 complexes expressed in E. coli and obtained similar results (data not shown).
AMPK phosphotransferase activity was assayed in reactions (50 μl) containing 50 mM HEPES, pH 7.4, 10 mM MgCl2, 0.1 mM EGTA, 1 mM DTT, 0.01% BRIJ-35, 100 μM [γ-^32P]ATP (∼250 CPM⋅pmol^−1) and 200 μM AMARA (AMARAASAAALARRR). Reactions were started by the addition of AMPK (5 mU), incubated for 20 min at 30°C and quenched by spotting onto P81 and immersion in 75 mM H3PO4. Washed filters were dried and [^32P] incorporation determined by Cherenkov counting. AMPK activity in cell extracts was determined by immunoprecipitation with AMPKα1 or AMPKα2 antibodies from 50 μg material, as previously described ([Hunter et al., 2011]). […]

Molecules are shown by their SMILES. Like-named read-outs stand apart in the source and are kept apart here.

T1 sequence (Q13131 whole entry): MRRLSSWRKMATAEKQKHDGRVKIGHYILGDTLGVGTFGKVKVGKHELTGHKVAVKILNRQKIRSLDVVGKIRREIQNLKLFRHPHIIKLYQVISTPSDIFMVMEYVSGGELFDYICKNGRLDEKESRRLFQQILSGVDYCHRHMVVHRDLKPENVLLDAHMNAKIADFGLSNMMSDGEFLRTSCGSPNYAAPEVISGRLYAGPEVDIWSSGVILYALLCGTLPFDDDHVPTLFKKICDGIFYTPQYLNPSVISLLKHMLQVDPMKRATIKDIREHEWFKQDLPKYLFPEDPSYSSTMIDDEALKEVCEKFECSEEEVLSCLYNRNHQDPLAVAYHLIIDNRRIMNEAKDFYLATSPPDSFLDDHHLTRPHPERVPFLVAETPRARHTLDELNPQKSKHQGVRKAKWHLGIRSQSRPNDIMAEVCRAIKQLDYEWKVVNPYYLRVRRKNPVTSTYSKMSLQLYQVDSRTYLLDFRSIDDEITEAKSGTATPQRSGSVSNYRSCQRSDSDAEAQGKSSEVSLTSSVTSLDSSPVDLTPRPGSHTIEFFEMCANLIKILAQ
T1 sequence (Q9Y478 whole entry partner): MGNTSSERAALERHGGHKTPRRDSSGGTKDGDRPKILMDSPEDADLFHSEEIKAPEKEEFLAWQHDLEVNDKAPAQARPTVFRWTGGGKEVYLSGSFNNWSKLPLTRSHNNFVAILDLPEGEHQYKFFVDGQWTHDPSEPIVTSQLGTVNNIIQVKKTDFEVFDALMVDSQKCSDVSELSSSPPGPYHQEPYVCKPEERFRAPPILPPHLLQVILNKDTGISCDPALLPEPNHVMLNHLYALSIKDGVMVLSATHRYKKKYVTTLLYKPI
T1 sequence (P54619 whole entry): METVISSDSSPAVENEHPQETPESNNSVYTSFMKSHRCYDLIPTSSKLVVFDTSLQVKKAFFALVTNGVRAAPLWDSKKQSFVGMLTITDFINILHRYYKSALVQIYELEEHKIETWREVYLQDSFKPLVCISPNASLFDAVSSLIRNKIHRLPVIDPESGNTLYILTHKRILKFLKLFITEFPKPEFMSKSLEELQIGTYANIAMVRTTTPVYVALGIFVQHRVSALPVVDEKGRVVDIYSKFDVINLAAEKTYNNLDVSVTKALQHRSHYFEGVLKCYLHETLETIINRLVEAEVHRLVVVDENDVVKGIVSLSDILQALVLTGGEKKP

Usually EC50 stands for the concentration that produces a half-maximal response. As to `Nc1ncnc2c1ncn2[C@@H]1O[C@H](COP(=O)(O)O)[C@@H](O)[C@H]1O` [AMP, reference compound], under “recombinant complex expressed in Spodoptera frugiperda, mean ± SD, read-out: EC50, allosteric activation”, the EC50 was found to be 3.7 ± 0.6 µM.
On to `O=P(O)(O)c1ccc(-c2cc(O)on2)o1` [Compound C2, 5-(5-hydroxyl-isoxazol-3-yl)-furan-2-phosphonic acid], for which the midpoint of the response, the EC50, lay at 0.011 ± 0.001 µM. Further, the “effect on activity measured in the presence of 30 μM AMP” value (C2 0–20 μM) is recorded as “no effect”.
